According to PubChem BioAssay AID1963858 (Molecular Pharmacology Branch, DTP, NCI, 2024):

Test system: HOP-62 multicell spheroids with HUVEC/MSC, viability
Test: Anticancer human tumor HOP-62 cell line growth inhibition [KRAS2];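 also: viability read after a week of compound exposure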;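 as to viability, T/C: 100% = DMSO vehicle-treated spheroids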
Conditions: for IC50: curve of first compound; for viability, T/C: stronger effect = lower value
Excerpt: Multicellular complex tumor spheroid response to RAS pathway inhibitors in combination with a targeted agents in patient-derived cell lines with oncogenic KRAS variants from multiple cancer types
A high-throughput screen of multi-cell type tumor spheroids was designed to identify active combinations of targeted small molecules and KRAS pathway inhibitors. Complex spheroids include a stromal component modeled by human endothelial cells (HUVEC) and fibroblasts modeled by human mesenchymal stem cells (MSCs). The concentration ranges selected for each drug and investigational agent were based upon clinically achievable concentrations if the clinical Cmax of the agent was known.
Compounds. The drugs and investigational agents: BI-3406 (NSC825286), BAY-293 (NSC824723), batoprotafib (TNO155; NSC825523), sotorasib (AMG 510; NSC818433), MRTX1257 (NSC819558), elimusertib (BAY 1895344; NSC800525), molibresib (GSK525762; NSC774829), temuterkib (LY3214996; NSC803410), venetoclax (NSC766270), alisertib (NSC759677), olaparib (NSC753686), talazoparib (NSC767125), erdafitinib (NSC781556), ipatasertib (NSC767898), cabozantinib (NSC761068), nintedanib (NSC756659), abemaciclib (NSC768073), docetaxel (NSC628503), trametinib (NSC758246), and sapanisertib (NSC764658) were obtained from the National Cancer Institute (NCI) Developmental Therapeutics Program Chemical Repository. The FDA-approved anticancer drug set is available from the Developmental Therapeutics Program. […] The stock solutions were prepared in dimethyl sulfoxide (DMSO, Sigma-Aldrich, St. Louis, MO, cat. D2650) at 800-fold the tested concentration and stored at -70 degrees C prior to their use. All drugs and investigational agents were tested over a range starting from a high concentration at or near the clinical Cmax and decreasing in half-log increments. If the clinical Cmax for an agent had not been determined, the highest concentration tested was 10 microM.
Cell Culture. All cells were maintained in an incubator at 37 degrees C and 5% CO2 with 95% humidity. The PDC lines were cultured according to standard operating procedures established by the NCI PDMR (https://pdmr.cancer.gov/sops/default.htm). Briefly, all PDCs were thawed and cultured in Matrigel-coated flasks prepared with a working solution of 1X Ham's F-12 nutrient mix, without supplementation (Invitrogen, Waltham, MA, cat. 11765054), 100 U/mL penicillin-streptomycin (Invitrogen, cat. 15140122), and 2.5% Matrigel (Corning Inc., Corning, NY, cat. 354248) for the first three passages. All PDCs were cultured in complete DMEM/F-12 media containing advanced DMEM/F-12 (Invitrogen, cat. 12634028), 4.9% defined fetal bovine serum, heat inactivated (HyClone Laboratories Inc., Logan, UT, cat. SH30070.03HI), 389 ng/mL hydrocortisone (Sigma-Aldrich, cat. H4001), 9.7 ng/mL human EGF recombinant protein (Invitrogen, cat. PHG0313), 23.4 microg/mL adenine (Sigma-Aldrich, cat. A2786), 97.3 U/mL penicillin-streptomycin (Invitrogen, cat. 15140122), 1.9 mM L-glutamine (Invitrogen, cat. 25030081), and 9.7 microM Y-27632 dihydrochloride (Tocris Bioscience, Bristol, United Kingdom, cat. 1254). The PDCs were cultured in complete DMEM/F12 media without 9.7 microM Y-27632 dihydrochloride for at least two passages prior to the screen. The established cell line HOP-62 was cultured in RPMI 1640 medium, HEPES (Invitrogen, cat. 22400105) with 10% defined fetal bovine serum (HyClone Laboratories Inc., cat. SH30070.03) and 2 mM L-glutamine (Invitrogen, cat. 25030081). The pooled donor HUVEC were cultured in endothelial cell growth medium 2 (PromoCell, Heidelberg, Germany, cat. C-22011) and the hMSC were cultured in mesenchymal stem cell growth medium 2 (PromoCell, cat. C-28009). For all experiments, HUVEC and hMSC were used at passages </=5, while the malignant cell lines were used at passages </=15. […]

[1] = second compound 0.1 µM, first compound 0.0316 µM
[2] = second compound 0.1 µM, first compound 0.1 µM
[3] = second compound 0.1 µM, first compound 0.316 µM
[4] = second compound 0.1 µM, first compound 1 µM
[5] = second compound 0.1 µM, first compound 3.16 µM
[6] = second compound 0.1 µM, first compound 10 µM
[7] = second compound 0.316 µM, first compound 0.0316 µM
[8] = second compound 0.316 µM, first compound 0.1 µM
[9] = second compound 0.316 µM, first compound 0.316 µM
[10] = second compound 0.316 µM, first compound 1 µM
[11] = second compound 0.316 µM, first compound 3.16 µM
[12] = second compound 0.316 µM, first compound 10 µM
[13] = second compound 1 µM, first compound 0.0316 µM
[14] = second compound 1 µM, first compound 0.1 µM
[15] = second compound 1 µM, first compound 0.316 µM
[16] = second compound 1 µM, first compound 1 µM
[17] = second compound 1 µM, first compound 3.16 µM
[18] = second compound 1 µM, first compound 10 µM
[19] = second compound 3.16 µM, first compound 0.0316 µM
[20] = second compound 3.16 µM, first compound 0.1 µM
[21] = second compound 3.16 µM, first compound 0.316 µM
[22] = second compound 3.16 µM, first compound 1 µM
[23] = second compound 3.16 µM, first compound 3.16 µM
[24] = second compound 3.16 µM, first compound 10 µM
[25] = second compound 10 µM, first compound 0.0316 µM
[26] = second compound 10 µM, first compound 0.1 µM
[27] = second compound 10 µM, first compound 0.316 µM
[28] = second compound 10 µM, first compound 1 µM
[29] = second compound 10 µM, first compound 3.16 µM

SMILES	IC50 (second compound 0.1 µM) [nM]	IC50 (second compound 0.316 µM) [nM]	IC50 (second compound 1 µM) [nM]	IC50 (second compound 3.16 µM) [nM]	viability, T/C [1] [%]	viability, T/C [2] [%]	viability, T/C [3] [%]	viability, T/C [4] [%]	viability, T/C [5] [%]	viability, T/C [7] [%]	viability, T/C [8] [%]	viability, T/C [9] [%]	viability, T/C [10] [%]	viability, T/C [11] [%]	viability, T/C [13] [%]	viability, T/C [14] [%]	viability, T/C [15] [%]	viability, T/C [16] [%]	viability, T/C [17] [%]	viability, T/C [19] [%]	other results
CC1(C)CCC(CN2CCN(c3ccc(C(=O)NS(=O)(=O)c4ccc(NCC5CCOCC5)c([N+](=O)[O-])c4)c(Oc4cnc5[nH]ccc5c4)c3)CC2)=C(c2ccc(Cl)cc2)C1 + COc1cc2nc(C)nc(NC(C)c3cc(N)cc(C(F)(F)F)c3)c2cc1OC1CCOC1	4240	4580	3430	1660	84.1	92.3	79.6	82.6	58	87.5	88.7	78.2	75.3	65	85.1	88	78.9	64.6	57.8	78	IC50 (second compound 10 µM): 370 nM; viability, T/C [6]: 26%; viability, T/C [12]: 23.2%; viability, T/C [18]: 14.5%; viability, T/C [20]: 75.6%; viability, T/C [21]: 62.8%; viability, T/C [22]: 62.2%; viability, T/C [23]: 38.5%; viability, T/C [24]: 26%; viability, T/C [25]: 55.6%; viability, T/C [26]: 56%; viability, T/C [27]: 52.8%; viability, T/C [28]: 39.5%; viability, T/C [29]: 24%; viability, T/C (second compound 10 µM, first compound 10 µM): 7.27%
CC1COCCN1c1cc(-c2ccnn2C)c2ccnc(-c3ccn[nH]3)c2n1 (stereo not given) + C=CC(=O)N1CCN(c2nc(=O)n(-c3c(C)ccnc3C(C)C)c3nc(-c4c(O)cccc4F)c(F)cc23)C(C)C1	27.2	33.2	23.3	12	48.3	15.2	11.7	11.4	8.87	51.5	19.5	12.7	10.7	9.1	44.2	19.3	11.1	10.5	10.7	33.5	IC50 (second compound 10 µM): < 10 nM; viability, T/C (second compound 0.1 µM, first compound 0.01 µM): 61.3%; viability, T/C (second compound 0.316 µM, first compound 0.01 µM): 66.7%; viability, T/C (second compound 1 µM, first compound 0.01 µM): 65.9%; viability, T/C (second compound 3.16 µM, first compound 0.01 µM): 53.1%; viability, T/C [20]: 15.5%; viability, T/C [21]: 11.7%; viability, T/C [22]: 13.3%; viability, T/C [23]: 12.1%; viability, T/C (second compound 10 µM, first compound 0.01 µM): 33%; viability, T/C [25]: 23.9%; viability, T/C [26]: 18.1%; viability, T/C [27]: 15.5%; viability, T/C [28]: 13.8%; viability, T/C [29]: 11.3%
CC(C)NCC(C(=O)N1CCN(c2ncnc3c2C(C)CC3O)CC1)c1ccc(Cl)cc1 (stereo not given) + C=CC(=O)N1CCN(c2nc(OCC3CCCN3C)nc3c2CCN(c2cccc4cccc(C)c24)C3)CC1CC#N	48	< 31.6	< 31.6	< 31.6	55.9	39.7	16.1	9.65	6.16	39.4	29.7	15.2	9.41	5.86	29.8	21	14.1	7.91	5.78	0.51	IC50 (second compound 0.0316 µM): 173 nM; viability, T/C (second compound 0.0316 µM, first compound 0.0316 µM): 76.8%; viability, T/C (second compound 0.0316 µM, first compound 0.1 µM): 57.4%; viability, T/C (second compound 0.0316 µM, first compound 0.316 µM): 42.4%; viability, T/C (second compound 0.0316 µM, first compound 1 µM): 18.6%; viability, T/C (second compound 0.0316 µM, first compound 3.16 µM): 8.82%; viability, T/C (second compound 0.0316 µM, first compound 10 µM): 6.71%; viability, T/C [6]: 5.4%; viability, T/C [12]: 5.37%; viability, T/C [18]: 5%; viability, T/C [20]: 0.35%; viability, T/C [21]: 0.44%; viability, T/C [22]: 0.32%; viability, T/C [23]: 0.31%; viability, T/C [24]: 0.41%
